Data on one compound can be found in publication PMC9043997, “LEAP2 reduces postprandial glucose excursions and ad libitum food intake in healthy men” (Cell Reports Medicine, 2022).

Where a SMILES comes first, the peptide text is derived from it. Bridges are numbered along the chain shown (N, C = ends).

Experiment [1] concerns healthy men. In words: Ad libitum meal test at the end of the infusion period. It counts as in vivo, human. To be noted: healthy men n = 20, iv LEAP2 ~25 pmol/kg/min. Here is the method:
The infusion was terminated when participants had finished eating.
Unless otherwise stated, results are presented as mean ± SEM. Baseline values were calculated as a mean of timepoints −35, −10 and 0 min or, when only available −10 and 0 min. Baseline values for the postprandial period were calculated as a mean of timepoint 60 min. Calculations of AUC were based on the trapezoidal rule. AUC values are reported for the period 0 to 255 min. To assess the fasting and postprandial periods separately, AUC values are reported for the periods 0 to 60 min and 60 to 255 min, respectively. Student’s paired t test was used to test for differences in baseline, peak, time to peak, AUC and mean values and ad libitum food intake in men. Indirect calorimetry and thermal imaging data were fitted to a repeated-measures mixed effects model with the intervention and timepoints as independent variables with interaction and Geisser-Greenhouse correction. Šidák’s post hoc test was used to compare LEAP2 to placebo for each timepoint. For analysis of endogenous LEAP2 concentrations in response to a liquid mixed meal test, postprandial data during placebo infusion were fitted to a repeated-measures mixed effects model with time as a fixed effect and the individual participant as a random effect with Geisser-Greenhouse correction. Dunnett’s post hoc test was used to compare endogenous LEAP2 concentrations at each timepoint (75 to 255 min) to the postprandial baseline. Mouse plasma glucose, food intake and insulin data were analyzed by a repeated-measures two-way ANOVA with Šidák’s post hoc test. Statistical analyses were carried out using GraphPad Prism v9.0.0 and v9.1.1 (GraphPad Software, San Diego, California). A two-sided p value < 0.05 was considered statistically significant. The population size calculation was based on data from a previous study investigating the reproducibility of an ad libitum meal in healthy men.[41] Eighteen participants were needed to detect a difference of minimum 500 kJ in ad libitum food intake with a with-in subject difference of 739 kJ, a power of 80% and the above-mentioned significance level. To ensure sufficient power, 20 participants were included.

For experiment [2], the system named is healthy men. In words: Indirect calorimetry and renal urea excretion. The class given is in vivo, human. To be noted: iv LEAP2 ~25 pmol/kg/min. How it is done: Resting energy expenditure and respiratory quotient were measured by indirect calorimetry (Vyntus CPX Canopy; Vyaire Medical, Höchberg, Germany) for 15 min at timepoints −25 (baseline), 45, 120 and 240 min, with the participants awake and in a supine position from 5 min prior to each test. Participants rested in a hospital bed for 30 min before the first test and throughout the experimental day. The gas and flow analyzers were calibrated before each test. The first 5 min and the last minute of data collection were subsequently discarded, and the mean of a 5-min steady state period defined as a coefficient of variation <10% for VO2 and CO2 was used to estimate resting energy expenditure and respiratory quotient for each test. The 5-min steady state period with the lowest resting energy expenditure and with a respiratory quotient between 0.7 and 1.0 was considered. In a few cases without a 5-min steady state period, a 4-min steady state period was considered.[35]^,[36] In the present study, a steady state period of 5 min was successfully reached in […] out of 160 tests. One participant was excluded from the subsequent data analysis due to no steady state period in any of the four tests during an experimental day. A 4-min steady state period was considered in six cases reaching a total of 23 excluded tests from the data analysis.
To assess the amount of protein breakdown after the liquid mixed meal, urine samples were collected at timepoints 135 and 255 min for measurement of renal urea excretion and total urine production. At timepoint 60 min, 5 min prior to ingestion of the liquid mixed meal, participants were asked to empty their urinary bladder.

For a further experiment, the system named is wild-type mice. In words: Fasting insulin and plasma glucose after subcutaneous LEAP2 in fasted wild-type mice. The class given is in vivo, mouse. To be noted: fasted female wild-type mice, LEAP2 3 μmol/kg subcutaneous. Here is the method: For fasting insulin and glucose concentrations, females (15 weeks of age) were used. Mice were housed four mice per cage. On the experimental day, mice were fasted from four hours before subcutaneous administration until end of the study and randomized by body weight into either vehicle (saline) or LEAP2 dosing (3 μmol/kg). Blood samples were collected at timepoints −60, 20 and 60 min from the retro-orbital vein plexus using EDTA-coated capillary tubes. Plasma was subsequently separated from the blood after centrifugation (3,000 g, 4°C, 5 min) and stored at −80°C until analysis. Blood glucose was measured at timepoints −60, 20 and 60 min from eye blood and at timepoint 0 min from a tail puncture by use of the same glucometer (Contour ™xt meter; Ascensia Diabetes Care, Basel, Switzerland). Mouse plasma insulin concentrations were determined by use of a Mouse/Rat Insulin Kit (cat: K152BZC-1; Meso Scale Discovery, Gaithersburg, Maryland, USA). The assay was performed according to the manufacturer’s instructions, and the plate was measured by use of MESO QuickPlex SQ 120.

`CC[C@H](C)[C@@H]1NC(=O)[C@@H]2CSSC[C@@H](C(=O)N[C@@H](CO)C(=O)N[C@@H](CC(C)C)C(=O)N[C@@H](CO)C(=O)N[C@H](C(=O)N[C@@H](C)C(=O)N[C@@H](CCC(N)=O)C(=O)N[C@@H](CCC(=O)O)C(=O)O)C(C)C)NC(=O)[C@H](CCCNC(=N)N)NC(=O)[C@H](CCCNC(=N)N)NC(=O)[C@H](CCCCN)NC(=O)[C@H](CCCNC(=N)N)NC(=O)[C@H](CSSC[C@H](NC(=O)[C@H](CO)NC(=O)[C@H](C)NC(=O)CNC(=O)[C@@H](NC(=O)[C@@H]3CCCN3C(=O)[C@H](CCCNC(=N)N)NC(=O)[C@H](CC(C)C)NC(=O)[C@H](CO)NC(=O)[C@@H](NC(=O)CNC(=O)[C@H](CCCNC(=N)N)NC(=O)[C@H](Cc3c[nH]c4ccccc34)NC(=O)[C@H](Cc3ccccc3)NC(=O)[C@@H]3CCCN3C(=O)[C@@H](NC(=O)[C@@H](N)CCSC)[C@@H](C)O)C(C)C)[C@@H](C)CC)C(=O)N[C@@H](CCCNC(=N)N)C(=O)N[C@@H](CC(=O)O)C(=O)N[C@@H](CC(=O)O)C(=O)N[C@@H](CO)C(=O)N[C@@H](CCC(=O)O)C(=O)N2)NC(=O)[C@H](CC(C)C)NC(=O)[C@H](CCCNC(=N)N)NC(=O)[C@H]([C@@H](C)O)NC1=O` [LEAP2, liver-expressed antimicrobial peptide 2] (H-MTPFWRGVSLRPIGASCRDDSECITRLCRKRRCSLSVAQE-OH; disulfide 17-28, 23-33 (inferred); N-terminus and C-terminus assumed): in the experiment on healthy men [1] (95% CI, p = 0.0029), the “mean difference in ad libitum food intake per kg body weight (placebo vs LEAP2)” value amounted to 5.4 kJ/kg. The “mean difference in total ad libitum food intake (placebo vs LEAP2)” value with healthy men [1] (95% CI, p = 0.0041) came out at 432 kJ. Moreover, the “mean difference in duration of the ad libitum meal (placebo vs LEAP2)” value with healthy men [1] (95% CI, p = 0.0303) turned out to be 1.5 min. The “reduction in energy intake during ad libitum meal compared with placebo” value in the experiment on healthy men [1] (pasta Bolognese served 260 min after start of infusion) is listed as about 12%. In addition, in the experiment with healthy men [2] (indirect calorimetry), the “resting energy expenditure, LEAP2 vs placebo” value was “no differences”. Further, the “respiratory quotient, LEAP2 vs placebo” value with healthy men [2] (indirect calorimetry, data not shown) was “no differences”. In addition, the “renal urea excretion, LEAP2 vs placebo” value with healthy men [2] (two consecutive time points (135 and 255 min) or total, data not shown) is given as “no difference”. Besides, the “fasting plasma glucose concentrations vs vehicle” value in the experiment with wild-type mice was “did not affect fasting plasma glucose concentrations”. Besides, the “fasting insulin concentrations vs vehicle” value in the experiment on wild-type mice (20 and 60 min) is “no effect”.
